For the assay, the system named is P388. Kind of assay: Cytotoxicity against mouse P388 cells. The class given is functional, cell-based.

≈ marks a conversion by molar mass, not a printed value.

The values that follow come from ChEMBL document CHEMBL1156400, “Cedronolactone E, a novel C(19) quassinoid from Simaba cedron” (J Nat Prod, 2001).

As for `C[C@@H]1[C@@H]2[C@@H](O)C(=O)O[C@@H]3C[C@@]4(C)C(=C(O[C@@]5(C)CC(=O)O[C@@H]45)[C@@H]1O)[C@]23CO` [CEDRONOLACTONE E], the IC50 came to 51 µg/mL (≈ 134 µM).

Broadly, the IC50 is the point on the concentration scale where inhibition reaches its midpoint. Low values mean greater potency in that assay, high ones weaker potency in that assay.
